According to the supplement of paper PMC10307832:

Experiments:
Experiment in all cases: relative viability (nuclei count vs DMSO), 5 days (fraction); higher = more cells survive
Daporinad + Olaparib = compound: O=C(/C=C/c1cccnc1)NCCCCC1CCN(C(=O)c2ccccc2)CC1 [Daporinad] + O=C(c1cc(Cc2n[nH]c(=O)c3ccccc23)ccc1F)N1CCN(C(=O)C2CC2)CC1 [Olaparib] (partner 8 µM)
Method in brief: (§1)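 Relative viability is defined as nuclei in treated wells over nuclei in vehicle wells. Duplicate plates were run and medians reported. Lung cancer cell lines in 1536-well plates were dosed by pin tool one day after seeding, with one drug or with a fixed anchor-drug dose plus five library-drug doses (not always all listed) in √10 steps, and nuclei were counted after 5 days.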

Daporinad + Tozasertib = compound: O=C(/C=C/c1cccnc1)NCCCCC1CCN(C(=O)c2ccccc2)CC1 [Daporinad] + Cc1cc(Nc2cc(N3CCN(C)CC3)nc(Sc3ccc(NC(=O)C4CC4)cc3)n2)n[nH]1 [Tozasertib] (partner 0.1 µM)
Method in brief: as §1

R406 + Lapatinib = compound: COc1cc(Nc2ncc(F)c(Nc3ccc4c(n3)NC(=O)C(C)(C)O4)n2)cc(OC)c1OC [R406] + CS(=O)(=O)CCNCc1ccc(-c2ccc3ncnc(Nc4ccc(OCc5cccc(F)c5)c(Cl)c4)c3c2)o1 [Lapatinib] (partner 2 µM)
Method in brief: as §1

Daporinad + Alpelisib = compound: O=C(/C=C/c1cccnc1)NCCCCC1CCN(C(=O)c2ccccc2)CC1 [Daporinad] + Cc1nc(NC(=O)N2CCC[C@H]2C(N)=O)sc1-c1ccnc(C(C)(C)C(F)(F)F)c1 [Alpelisib] (partner 2 µM)
Method in brief: as §1

Cell Line	relative viability (Daporinad + Olaparib; first compound 0.0005 µM)	relative viability (Daporinad + Olaparib; first compound 0.001581 µM)	relative viability (Daporinad + Olaparib; first compound 0.005 µM)	relative viability (Daporinad + Olaparib; first compound 0.01581 µM)	relative viability (Daporinad + Tozasertib; first compound 0.0005 µM)	relative viability (Daporinad + Tozasertib; first compound 0.001581 µM)	relative viability (Daporinad + Tozasertib; first compound 0.005 µM)	relative viability (Daporinad + Tozasertib; first compound 0.01581 µM)	relative viability (R406 + Lapatinib; first compound 0.08 µM)	relative viability (R406 + Lapatinib; first compound 0.253 µM)	relative viability (R406 + Lapatinib; first compound 0.8 µM)	relative viability (R406 + Lapatinib; first compound 2.53 µM)	relative viability (R406 + Lapatinib; first compound 8 µM)	relative viability (Daporinad + Alpelisib; first compound 0.0005 µM)	relative viability (Daporinad + Alpelisib; first compound 0.001581 µM)	relative viability (Daporinad + Alpelisib; first compound 0.005 µM)	relative viability (Daporinad + Alpelisib; first compound 0.01581 µM)
HCC-827	0.612	0.728	0.608	0.504	0.428	0.445	0.513	0.446	0.163	0.21	0.186	0.169	0.17	1.04	1.03	1.06	0.969
HOP-62	0.258	0.287	0.188	0.15	0.379	0.432	0.332	0.353	0.918	0.949	1.08	1.06	1.12	–	1.3	1.11	0.481
IA-LM	0.798	0.766	0.707	0.475	–	–	–	–	0.99	1.26	0.797	1.01	0.777	0.865	0.983	0.967	0.58
LC-2-ad	0.664	0.662	0.441	0.398	0.516	0.544	0.459	0.427	0.986	0.847	1.03	0.112	0.0913	0.858	0.983	0.938	0.837
LCLC-97TM1	0.435	0.322	0.201	0.122	0.194	0.432	0.181	0.253	0.647	0.855	1.06	0.717	1.13	0.295	0.268	0.248	0.257
LCLC-103H	0.877	0.741	0.697	0.688	0.548	0.5	0.514	0.525	–	–	–	–	–	1.01	1.01	1.02	1.06
LK-2	0.657	0.459	0.394	0.28	0.17	0.168	0.194	0.169	0.856	1.03	0.843	0.472	0.321	0.995	1.24	0.719	0.549
LOU-NH91	0.874	0.977	0.803	0.837	0.754	0.699	0.792	0.906	0.785	0.792	0.734	0.564	0.537	0.719	0.795	0.851	0.997
LU99A	0.188	0.198	0.199	0.186	0.26	0.254	0.29	0.249	0.946	0.849	1.08	–	0.482	0.492	0.602	0.584	0.574
LXF-289	0.952	1.13	0.929	0.945	0.23	0.188	0.176	0.148	0.868	1.01	0.9	0.921	0.605	0.977	1.09	1.04	1.15
